# Laboratory results published in ChEMBL document CHEMBL1132095, “6-arylamino-5,8-quinolinediones and 7-arylamino-5,8-isoquinolinediones as inhibitors of endothelium-dependent vasorelaxation” (Bioorg Med Chem Lett, 1999).
# pEC50: −log10 of the molar value.
# Tests used:
# Rattus norvegicus [1] = species: Rattus norvegicus; assay: Inhibitory activity on acetylcholine-induced vasorelaxation of phenylephrine-precontracted rat aorta with intact endothelium; assay type: functional, organism-based
# Rattus norvegicus [2] = species: Rattus norvegicus; assay: Percent of maximal acetylcholine (ACh)-induced vasorelaxation of the rat aorta; assay type: functional
pEC50 (Rattus norvegicus [1]),SMILES,Emax (Rattus norvegicus [2]) [%]
6.54,O=C1C(Nc2ccc(F)cc2F)=CC(=O)c2ncccc21,94
6.25,O=C1C=C(Nc2cccc(F)c2)C(=O)c2cnccc21,89
6.37,O=C1C=C(Nc2ccc(F)cc2F)C(=O)c2cnccc21,96
6.75,O=C1C(Nc2ccc(Cl)cc2)=CC(=O)c2ncccc21,86
6.47,O=C1C(Nc2ccccc2)=CC(=O)c2ncccc21,77
6.19,O=C1C=C(Nc2ccc(F)c(F)c2)C(=O)c2cnccc21,81
6.27,O=C1C(Nc2ccc(F)cc2)=CC(=O)c2ncccc21,79
6.66,O=C1C=C(Nc2ccc(Cl)cc2)C(=O)c2ccccc21,98
6.60,O=C1C(Nc2ccc(F)c(F)c2)=CC(=O)c2ncccc21,92
6.03,O=C1C(Nc2ccc(F)c(F)c2F)=CC(=O)c2ncccc21,72
6.54,O=C1C=C(Nc2cc(F)cc(F)c2)C(=O)c2cnccc21,94
6.48,O=C1C=C(Nc2ccc(F)c(F)c2F)C(=O)c2ccccc21,97
6.52,O=C1C(Nc2ccc(Br)cc2)=CC(=O)c2ncccc21,88
6.09,O=C1C(Nc2cccc(F)c2)=CC(=O)c2ncccc21,85
6.35,O=C1C(Nc2cc(F)cc(F)c2)=CC(=O)c2ncccc21,91
6.62,O=C1C=C(Nc2ccccc2)C(=O)c2ccccc21,98
6.72,O=C1C=C(Nc2ccc(Cl)cc2)C(=O)c2cnccc21,96
6.28,O=C1C=CC(=O)c2ncccc21,80
6.22,O=C1C(Nc2ccc(C(F)(F)F)cc2)=CC(=O)c2ncccc21,91
6.22,O=C1C(Nc2ccc(OC(F)(F)F)cc2)=CC(=O)c2ncccc21,88
6.44,O=C1C=C(Nc2ccc(F)cc2)C(=O)c2ccccc21,98
6.67,O=C1C(Nc2ccc(I)cc2)=CC(=O)c2ncccc21,89
5.95,O=C1C=C(Nc2ccc(F)c(F)c2F)C(=O)c2cnccc21,87
6.36,O=C1C=C(Nc2ccccc2)C(=O)c2cnccc21,93
5.91,O=C1C=C(Nc2ccc(F)cc2)C(=O)c2cnccc21,72

SMILES,pEC50 (Rattus norvegicus [1]),Emax (Rattus norvegicus [2]) [%]
N=C(NCCC[C@H](N)C(=O)O)N[N+](=O)[O-] [NITROARGININE],5.96,69
O=C1C=CC(=O)c2ccccc21 [NAPHTHOQUINONE],6.90,98
